Assay: Surface activity: critical micelle concentration and surface tension by force tensiometer
Format: physicochemical
Settings: for CMC / Surface tension (at CMC): aqueous solution, room temperature; for Cross-sectional area: area occupied by the surfactant molecule at the surface; for Cross-sectional area / Surface excess: from Gibbs adsorption equation
Method: Critical micelle concentrations (CMC) and surface tensions (ST) were measured for aqueous solutions of the surfactants of the present invention at room temperature using a force tensiometer (Sigma 700/701). Plots of surface tension against surfactant concentration were drawn allowing to determine CMC and surface tension at the CMC. Using the Gibbs adsorption equation it is possible to determine the surface excess as well as the area occupied by the surfactant molecule at the surface (as a reference see for example “Industrial Utilization of Surfactants: principles and practice”, M. J. Rosen and M. Dahanayake, 2000, ISBN 1893997111) which are important parameters to characterize a surfactant.

SMILES | CMC [mM] | Surface tension (at CMC) [mN/m] | Cross-sectional area [nm^2] | Surface excess [mmol/m^2]
CCCCCCCCCCCCCCC(C(O)c1ccccc1)S(=O)(=O)[O-].[Na+] (centres unmarked) [PAS-C16] | 0.22 | 36 | 0.53 | 0.0031
CCCCCCCCCCCCCCC(C(=O)c1ccccc1)S(=O)(=O)[O-].[Na+] (centres unmarked) [PAKS-C16] | 0.23 | 44 | 0.64 | 0.0026

From patent US20250388535A1, “SULFONATED AND SULFATED ARYL-ALKYL COMPOUNDS USEFUL AS SURFACTANTS” (SPECIALTY OPERATIONS FRANCE, priority 2022, published 2025)
